US20240158446A1, “CYCLIC COMPOUND HAVING SELECTIVE INHIBITORY ACTION ON KRAS OVER HRAS AND NRAS” (CHUGAI SEIYAKU KABUSHIKI KAISHA, priority 2021, published 2024)
pKd: −log10 of the molar value. *1 amine or outer side, *2 acyl side, *3 side chain or, on linkers, in order; H or OH if unused. Where a SMILES comes first, the peptide text is derived from it. Bridges are numbered along the chain shown (N, C = ends). [ ]: non-standard residue; d: D form. The star is where a group is joined. hPhe(3-Cl-4-CF3) = N[C@@H](CCc1ccc(C(F)(F)F)c(Cl)c1)C(=O)O; NPrPhe(4-CF3) = CCCN[C@@H](Cc1ccc(C(F)(F)F)cc1)C(=O)O; NPrAsp = CCCN([C@@H](CC(=O)[*:3])C(=O)[*:2])[*:1]; NEtAsp = CCN([C@@H](CC(=O)[*:3])C(=O)[*:2])[*:1]; NMeGly(cPent) = CN[C@H](C(=O)O)C1CCCC1; Ac4c(3,3-Me2) = CC1(C)CC(N)(C(=O)O)C1; NMeNva(3-Et) = CCC(CC)[C@H](NC)C(=O)O; NMeD = CN[C@@H](CC(=O)O)C(=O)O; NMeL = CN[C@@H](CC(C)C)C(=O)O; NMeNva = CCC[C@H](NC)C(=O)O; Morpholide = C1CN(*)CCO1; NMeA = CN[C@@H](C)C(=O)O; Aze = O=C(O)[C@@H]1CCN1; Ac4c = NC1(C(=O)O)CCC1; Sar = CNCC(=O)O

Tests used:
[1] = target: GDP-bound NRAS wild-type protein (Homo sapiens, UniProt P01111); assay: Binding to NRAS by surface plasmon resonance (SPR), Single Cycle Kinetics; settings: ratio of KD for GDP-bound NRAS wild-type protein to KD for KRAS, SPR
Chain of GDP-bound NRAS wild-type protein (P01111 whole entry): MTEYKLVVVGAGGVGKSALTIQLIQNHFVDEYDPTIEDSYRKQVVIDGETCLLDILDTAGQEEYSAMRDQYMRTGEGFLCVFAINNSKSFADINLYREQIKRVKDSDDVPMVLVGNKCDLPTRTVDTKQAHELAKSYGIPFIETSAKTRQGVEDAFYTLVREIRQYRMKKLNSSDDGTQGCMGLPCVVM

[2] = system: human lung cancer strain NCI-H441; assay: cells; settings: NCI-H441, 96 h, read-out: NCI-H441 IC50 (nM), NCI-H441 cell proliferation, 4 days, CellTiter-Glo;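 also: cell proliferation inhibition after four days measured by CellTiter-Glo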
[3] = target: GDP-bound HRAS wild-type protein (Homo sapiens, UniProt P01112); assay: Binding to HRAS by surface plasmon resonance (SPR), Single Cycle Kinetics; settings: ratio of KD for GDP-bound HRAS wild-type protein to KD for KRAS, SPR
Chain of GDP-bound HRAS wild-type protein (P01112 whole entry): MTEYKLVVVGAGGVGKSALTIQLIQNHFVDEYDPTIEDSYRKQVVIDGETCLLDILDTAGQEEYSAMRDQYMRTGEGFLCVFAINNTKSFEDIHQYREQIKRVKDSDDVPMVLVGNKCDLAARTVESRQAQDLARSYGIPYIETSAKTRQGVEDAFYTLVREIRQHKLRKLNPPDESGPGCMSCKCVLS

[4] = target: GDP-bound KRAS wild-type protein (Homo sapiens, UniProt P01116); assay: Binding to KRAS by surface plasmon resonance (SPR), Single Cycle Kinetics; settings: SPR, Single Cycle Kinetics, GDP-bound KRAS wild-type protein; read-out: KRAS KD
Chain of GDP-bound KRAS wild-type protein (P01116 whole entry): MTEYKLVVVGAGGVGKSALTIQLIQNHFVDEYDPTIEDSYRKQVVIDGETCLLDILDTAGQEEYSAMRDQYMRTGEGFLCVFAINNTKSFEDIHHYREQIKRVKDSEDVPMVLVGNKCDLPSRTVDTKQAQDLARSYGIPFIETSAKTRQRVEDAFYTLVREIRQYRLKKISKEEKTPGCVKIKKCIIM

## CCCN1C(=O)CN(C)C(=O)CN(C)C(=O)[C@H]([C@@H](C)CC)NC(=O)[C@H](CC(C)C)N(C)C(=O)C[C@@H](C(=O)N2CCOCC2)N(CC)C(=O)[C@H](C2CCCC2)N(C)C(=O)C2(CCC2)NC(=O)[C@@H]2CCCN2C(=O)[C@H](CCc2ccc(C(F)(F)F)c(Cl)c2)NC(=O)CN(C)C(=O)[C@@H]1Cc1ccc(C(F)(F)F)cc1 [PP1953] ([NMeL]I[Sar][Sar][NPrPhe(4-CF3)][Sar][hPhe(3-Cl-4-CF3)]P[Ac4c][NMeGly(cPent)][NEtAsp]-Morpholide; lactam N-11)
[1]
  NRAS/KRAS (KD ratio): B (a compound having 3 or more and less than 10 is denoted as B)
[2]
  IC50: 8.7 nM
[3]
  HRAS/KRAS (KD ratio): B (a compound having 3 or more and less than 10 is denoted as B)
[4]
  pKd: 9.38

## CCC[C@H]1C(=O)N[C@@H]([C@@H](C)CC)C(=O)N(C)CC(=O)N(C)CC(=O)N(CCC)[C@@H](Cc2ccc(C(F)(F)F)cc2)C(=O)N(C)CC(=O)N[C@@H](CCc2ccc(C(F)(F)F)c(Cl)c2)C(=O)N2CCC[C@H]2C(=O)NC2(CCC2)C(=O)N(C)[C@@H](C2CCCC2)C(=O)N(CCC)[C@H](C(=O)N2CCOCC2)CC(=O)N1C [PP1954] ([NMeNva]I[Sar][Sar][NPrPhe(4-CF3)][Sar][hPhe(3-Cl-4-CF3)]P[Ac4c][NMeGly(cPent)][NPrAsp]-Morpholide; lactam N-11)
[1]
  NRAS/KRAS (KD ratio): B (a compound having 3 or more and less than 10 is denoted as B)
[2]
  IC50: 8.1 nM
[3]
  HRAS/KRAS (KD ratio): B (a compound having 3 or more and less than 10 is denoted as B)
[4]
  pKd: 9.11

## CCC[C@H]1C(=O)N[C@@H]([C@@H](C)CC)C(=O)N(C)[C@@H](C)C(=O)N2CC[C@H]2C(=O)N(CCC)[C@@H](Cc2ccc(C(F)(F)F)cc2)C(=O)N(C)CC(=O)N[C@@H](CCc2ccc(C(F)(F)F)c(Cl)c2)C(=O)N2CCC[C@H]2C(=O)NC2(CCC2)C(=O)N(C)[C@@H](C2CCCC2)C(=O)N(CC)[C@H](C(=O)N2CCOCC2)CC(=O)N1C [PP1955] ([NMeNva]I[NMeA][Aze][NPrPhe(4-CF3)][Sar][hPhe(3-Cl-4-CF3)]P[Ac4c][NMeGly(cPent)][NEtAsp]-Morpholide; lactam N-11)
[1]
  NRAS/KRAS (KD ratio): C (A compound having a KD ratio of 0.1 or more and less than 3 is denoted as C)
[2]
  IC50: 4.4 nM
[3]
  HRAS/KRAS (KD ratio): B (a compound having 3 or more and less than 10 is denoted as B)
[4]
  pKd: 9.09

## CCCN1C(=O)CN(C)C(=O)CN(C)C(=O)[C@H]([C@@H](C)CC)NC(=O)[C@H](CC(C)C)N(C)C(=O)C[C@@H](C(=O)N(C)C)N(CC)C(=O)[C@H](C2CCCC2)N(C)C(=O)C2(CCC2)NC(=O)[C@@H]2CCCN2C(=O)[C@H](CCc2ccc(C(F)(F)F)c(Cl)c2)NC(=O)CN(C)C(=O)[C@@H]1Cc1ccc(C(F)(F)F)cc1 [PP1956] ([NMeL]I[Sar][Sar][NPrPhe(4-CF3)][Sar][hPhe(3-Cl-4-CF3)]P[Ac4c][NMeGly(cPent)][NEtAsp]-NMe2; lactam N-11)
[1]
  NRAS/KRAS (KD ratio): B (a compound having 3 or more and less than 10 is denoted as B)
[2]
  IC50: 2.2 nM
[3]
  HRAS/KRAS (KD ratio): B (a compound having 3 or more and less than 10 is denoted as B)
[4]
  pKd: 9.55

## CCCN1C(=O)[C@@H]2CCN2C(=O)[C@H](C)N(C)C(=O)[C@H]([C@@H](C)CC)NC(=O)[C@H](CC(C)C)N(C)C(=O)C[C@@H](C(=O)N(C)C)N(CC)C(=O)[C@H](C2CCCC2)N(C)C(=O)C2(CCC2)NC(=O)[C@@H]2CCCN2C(=O)[C@H](CCc2ccc(C(F)(F)F)c(Cl)c2)NC(=O)CN(C)C(=O)[C@@H]1Cc1ccc(C(F)(F)F)cc1 [PP1957] ([NMeL]I[NMeA][Aze][NPrPhe(4-CF3)][Sar][hPhe(3-Cl-4-CF3)]P[Ac4c][NMeGly(cPent)][NEtAsp]-NMe2; lactam N-11)
[1]
  NRAS/KRAS (KD ratio): C (A compound having a KD ratio of 0.1 or more and less than 3 is denoted as C)
[2]
  IC50: 8.6 nM
[3]
  HRAS/KRAS (KD ratio): B (a compound having 3 or more and less than 10 is denoted as B)
[4]
  pKd: 9.44

## CCCN1C(=O)CN(C)C(=O)CN(C)C(=O)[C@H]([C@@H](C)CC)NC(=O)[C@H](CC(C)C)N(C)C(=O)C[C@@H](C(=O)N2CCOCC2)N(C)C(=O)[C@H](C(CC)CC)N(C)C(=O)C2(CCC2)NC(=O)[C@@H]2CCCN2C(=O)[C@H](CCc2ccc(C(F)(F)F)c(Cl)c2)NC(=O)CN(C)C(=O)[C@@H]1Cc1ccc(C(F)(F)F)cc1 [PP1958] ([NMeL]I[Sar][Sar][NPrPhe(4-CF3)][Sar][hPhe(3-Cl-4-CF3)]P[Ac4c][NMeNva(3-Et)][NMeD]-Morpholide; lactam N-11)
[1]
  NRAS/KRAS (KD ratio): B (a compound having 3 or more and less than 10 is denoted as B)
[2]
  IC50: 57.8 nM
[3]
  HRAS/KRAS (KD ratio): B (a compound having 3 or more and less than 10 is denoted as B)
[4]
  pKd: 9.28

## CCC[C@H]1C(=O)N[C@@H]([C@@H](C)CC)C(=O)N(C)[C@@H](C)C(=O)N2CC[C@H]2C(=O)N(CCC)[C@@H](Cc2ccc(C(F)(F)F)cc2)C(=O)N(C)CC(=O)N[C@@H](CCc2ccc(C(F)(F)F)c(Cl)c2)C(=O)N2CCC[C@H]2C(=O)NC2(CCC2)C(=O)N(C)[C@@H](C(CC)CC)C(=O)N(C)[C@H](C(=O)N2CCOCC2)CC(=O)N1C [PP1959] ([NMeNva]I[NMeA][Aze][NPrPhe(4-CF3)][Sar][hPhe(3-Cl-4-CF3)]P[Ac4c][NMeNva(3-Et)][NMeD]-Morpholide; lactam N-11)
[1]
  NRAS/KRAS (KD ratio): C (A compound having a KD ratio of 0.1 or more and less than 3 is denoted as C)
[2]
  IC50: 14.7 nM
[3]
  HRAS/KRAS (KD ratio): B (a compound having 3 or more and less than 10 is denoted as B)
[4]
  pKd: 9.26

## CCCN1C(=O)CN(C)C(=O)CN(C)C(=O)[C@H]([C@@H](C)CC)NC(=O)[C@H](CC(C)C)N(C)C(=O)C[C@@H](C(=O)N(C)C)N(C)C(=O)[C@H](C(CC)CC)N(C)C(=O)C2(CCC2)NC(=O)[C@@H]2CCCN2C(=O)[C@H](CCc2ccc(C(F)(F)F)c(Cl)c2)NC(=O)CN(C)C(=O)[C@@H]1Cc1ccc(C(F)(F)F)cc1 [PP1960] ([NMeL]I[Sar][Sar][NPrPhe(4-CF3)][Sar][hPhe(3-Cl-4-CF3)]P[Ac4c][NMeNva(3-Et)][NMeD]-NMe2; lactam N-11)
[1]
  NRAS/KRAS (KD ratio): B (a compound having 3 or more and less than 10 is denoted as B)
[2]
  IC50: 6 nM
[3]
  HRAS/KRAS (KD ratio): C (A compound having a KD ratio of 0.1 or more and less than 3 is denoted as C)
[4]
  pKd: 9.77

## CCCN1C(=O)[C@@H]2CCN2C(=O)[C@H](C)N(C)C(=O)[C@H]([C@@H](C)CC)NC(=O)[C@H](CC(C)C)N(C)C(=O)C[C@@H](C(=O)N(C)C)N(C)C(=O)[C@H](C(CC)CC)N(C)C(=O)C2(CCC2)NC(=O)[C@@H]2CCCN2C(=O)[C@H](CCc2ccc(C(F)(F)F)c(Cl)c2)NC(=O)CN(C)C(=O)[C@@H]1Cc1ccc(C(F)(F)F)cc1 [PP1961] ([NMeL]I[NMeA][Aze][NPrPhe(4-CF3)][Sar][hPhe(3-Cl-4-CF3)]P[Ac4c][NMeNva(3-Et)][NMeD]-NMe2; lactam N-11)
[1]
  NRAS/KRAS (KD ratio): C (A compound having a KD ratio of 0.1 or more and less than 3 is denoted as C)
[2]
  IC50: 8 nM
[3]
  HRAS/KRAS (KD ratio): C (A compound having a KD ratio of 0.1 or more and less than 3 is denoted as C)
[4]
  pKd: 9.66

## CCCN1C(=O)CN(C)C(=O)CN(C)C(=O)[C@H]([C@@H](C)OC)NC(=O)[C@H](CC(C)C)N(C)C(=O)C[C@@H](C(=O)N2CCOCC2)N(C)C(=O)[C@H](C2CCCC2)N(C)C(=O)C2(CC(C)(C)C2)NC(=O)[C@@H]2CCCN2C(=O)[C@H](CCc2ccc(C(F)(F)F)c(Cl)c2)NC(=O)CN(C)C(=O)[C@@H]1Cc1ccc(C(F)(F)F)cc1 [PP1963] ([NMeL]T(Me)[Sar][Sar][NPrPhe(4-CF3)][Sar][hPhe(3-Cl-4-CF3)]P[Ac4c(3,3-Me2)][NMeGly(cPent)][NMeD]-Morpholide; lactam N-11)
[1]
  NRAS/KRAS (KD ratio): B (a compound having 3 or more and less than 10 is denoted as B)
[2]
  IC50: 9.1 nM
[3]
  HRAS/KRAS (KD ratio): C (A compound having a KD ratio of 0.1 or more and less than 3 is denoted as C)
[4]
  pKd: 9.74

## CCCN1C(=O)CN(C)C(=O)CN(C)C(=O)[C@H]([C@@H](C)OCC)NC(=O)[C@H](CC(C)C)N(C)C(=O)C[C@@H](C(=O)N2CCOCC2)N(C)C(=O)[C@H](C2CCCC2)N(C)C(=O)C2(CC(C)(C)C2)NC(=O)[C@@H]2CCCN2C(=O)[C@H](CCc2ccc(C(F)(F)F)c(Cl)c2)NC(=O)CN(C)C(=O)[C@@H]1Cc1ccc(C(F)(F)F)cc1 [PP1964] ([NMeL]T(Et)[Sar][Sar][NPrPhe(4-CF3)][Sar][hPhe(3-Cl-4-CF3)]P[Ac4c(3,3-Me2)][NMeGly(cPent)][NMeD]-Morpholide; lactam N-11)
[1]
  NRAS/KRAS (KD ratio): B (a compound having 3 or more and less than 10 is denoted as B)
[2]
  IC50: 10.3 nM
[3]
  HRAS/KRAS (KD ratio): B (a compound having 3 or more and less than 10 is denoted as B)
[4]
  pKd: 9.72
